# Assay results from US20080102042A1, “Oral Composition” (KYOWA HAKKO KOGYO CO., LTD., priority 2004, published 2008).
# Legend:
# [1] = system: advanced alveolar pyorrhea; assay: Test Example 1: injection into the periodontal pocket of a patient with advanced alveolar pyorrhea, with gingival massage; assay type: in vivo, human; settings: buffered saline (pH 7.0) containing 2.5% by weight, 0.8 ml into periodontal pocket, gingiva massaged, twice a day for two weeks; one patient
# Experimental: Buffered saline (pH 7.0) containing 2.5% by weight of N-acetylhydroxyproline (0.8 ml) was injected into the periodontal pocket of a patient with advanced alveolar pyorrhea and the gingiva was lightly massaged.
# alveolar pyorrhea = assay: Test Example 2: injection into the periodontal pocket of a patient with alveolar pyorrhea (big periodontal pocket, loose tooth), then continued toothbrushing; assay type: in vivo, human
# Experimental: This treatment was carried out after toothbrushing three times a day for two weeks. […] Thereafter, toothbrusing was continuously carried out using a very fine toothbrush with buffered saline (pH 7.0) containing 2.5% by weight of N-acetylhydroxyproline on it with massage of the gingiva and the inside of the periodontal pocket. This toothbrusing was carried out for more than three minutes three times a day.
# [2] = buffered saline (pH 7.0) containing 2.5% by weight, 0.8 ml into periodontal pocket, after toothbrushing three times a day for two weeks, one patient
structure (smiles),measurement,setting,value
"CC(=O)N1C[C@H](O)C[C@H]1C(=O)O [N-acetylhydroxyproline, N-acetyl-trans-4-hydroxy-L-proline]",symptoms of alveolar pyorrhea,[1],remarkably improved
same,looseness of the tooth,alveolar pyorrhea; [2],remarkably improved
same,pain of alveolar pyorrhea,alveolar pyorrhea; [2],completely disappeared
same,healthy state without pain or looseness of tooth (prevention of recurrence),"alveolar pyorrhea; thereafter continued toothbrushing with buffered saline (pH 7.0) containing 2.5% by weight, more than three minutes three times a day",could be maintained
